{"source": "patent US7094752B2", "about": "(Chiron Corporation, priority 1997, dated 2006)", "key": {"uPAR": {"biological_target": "T1, uPAR (Homo sapiens, UniProt Q03405)", "T1 construct": "sUPAR, soluble truncated form of the urokinase receptor; made in house; host or cells: baculovirus-infected Sf9 insect cells", "T1 sequence (Q03405 whole entry, looked up, the tested form may be a part)": "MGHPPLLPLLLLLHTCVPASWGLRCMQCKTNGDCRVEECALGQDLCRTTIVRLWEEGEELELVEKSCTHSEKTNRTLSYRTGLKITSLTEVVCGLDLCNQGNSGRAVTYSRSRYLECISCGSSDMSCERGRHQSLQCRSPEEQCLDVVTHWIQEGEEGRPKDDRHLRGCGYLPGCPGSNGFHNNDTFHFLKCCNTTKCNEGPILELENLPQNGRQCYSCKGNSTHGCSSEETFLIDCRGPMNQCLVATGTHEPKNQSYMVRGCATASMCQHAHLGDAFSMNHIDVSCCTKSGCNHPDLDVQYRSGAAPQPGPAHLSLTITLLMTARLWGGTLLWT", "test": "IC 50 (uM)^2", "method": "Table printed on a drawing sheet, FIG. 6\nHead of the field: IC 50 (uM)^2\nThe patent's description of the figure: FIG 6: Table. The table of FIG 6 depicts the sequences (SEQ ID NOS:12–17), phage yields, and IC50s in uPAR binding assays for selected phage peptides. Legend: 1. Individual phage were incubated with biotinylated suPAR with and without 10 μM uPA1–48 on streptavidin coated wells as described herein. The background yields of all phage without SuPAR in the wells ranged from 0.002–0.025%. Errors in yield are in the range 50%. 2. Apparent inhibition constant of the synthetic peptide in the uPAR receptor binding assay; errors are in the range of 20%. 3. NT=not determined because of peptide insolubility. 4. Clone 20 and 13–32 peptides were as described previously.\nFirst copying reader's note: The head is printed shifted: 'Phage Yield' covers the -1-48 and +1-48 columns and 'IC 50 (uM)' belongs to the last column; the raised marks 1-4 refer to a legend that is not printed on the sheet.\nWhere the first naming reader finds the target: description_of_the_figure: IC50s in uPAR binding assays for selected phage peptides"}, "suPAR [1]": {"biological_target": "T2, suPAR (Homo sapiens, UniProt Q03405)", "T2 construct": "sUPAR, soluble truncated form of the urokinase receptor; made in house; host or cells: baculovirus-infected Sf9 insect cells", "T2 sequence (Q03405 23-305 limits assumed)": "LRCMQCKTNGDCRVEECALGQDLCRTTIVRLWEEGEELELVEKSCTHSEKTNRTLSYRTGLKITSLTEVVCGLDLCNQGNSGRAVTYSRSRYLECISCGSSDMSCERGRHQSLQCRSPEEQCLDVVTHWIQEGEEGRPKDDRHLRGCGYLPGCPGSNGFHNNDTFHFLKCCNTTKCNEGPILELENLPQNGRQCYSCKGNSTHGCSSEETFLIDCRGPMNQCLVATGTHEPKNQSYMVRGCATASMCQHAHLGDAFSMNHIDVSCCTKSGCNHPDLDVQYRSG", "test": "suPAR binding assay (competition for uPA1–48 binding)", "conditions": "synthetic peptide", "method": "Twenty-eight independent bacteriophage were isolated and the random peptide encoding DNA segments sequenced. […] This is in contrast to previous results of affinity selection on uPAR alone, where the majority of selected bacteriophage bound with substantial yield as described in Goodson et al, Proc.Natl.Acad.Sci. USA 91: 7129–7133 (1994). The yields of these four bacteriophage were determined on suPAR in the presence and absence of uPA1–48. In addition, the encoded peptides were synthesized and tested as competitors in a suPAR binding assay as described in Stratton-Thomas et al, Prot.Eng. 8: 463–470 (1995), and Kaufman et al Anal.Biochem. 211: 261–266 (1993)."}, "[2]": {"biological_target": "T3, uPA1–48:uPAR complexes binding to vitronectin (Homo sapiens, UniProt Q03405)", "T3 construct": "sUPAR, soluble truncated form of the urokinase receptor; made in house; host or cells: suPAR: baculovirus-infected Sf9 cells; uPA1-48: recombinant yeast; vitronectin: purified from human plasma", "T3 sequence (Q03405 23-305 limits assumed, one chain of several)": "as the sequence (Q03405 23-305 limits assumed) above", "test": "Vitronectin binding assay (ELISA)", "conditions": "20 nM biotinylated suPAR, 20 nM uPA1–48", "method": "Vitronectin was purified from human plasma by the method of Yatohgo et al, Cello Struct.and Funct. 13: 281–292 (1988). Purified vitronectin was diluted to 20 μg/ml in PBS containing 1 mM CaCl2 and 0.5 mM MgCl2, dispensed at 50 μl/well into Immulon II wells (Dynatech, Chantilly, Va.), incubated overnight at 4° C. and washed with PBS/BSA. Biotinylated sUPAR was diluted to 20 nM in PBS/BSA, incubated with or without test ligand for 30 minutes at room temperature (22° C.), dispensed at 100 μl/well and incubated for 90 minutes. Wells were then washed and horseradish peroxidase (HRP)-conjugated streptavidin was added at 0.4 μg/ml in PBS/2% BSA for 1 hour followed by washing and addition of 100 μl/well TMB substrate. The color development was stopped with 100 μl of 0.8N H2SO4 and the absorbance at 450 nm measured in a 96 well plate reader (Dynatech, Chantilly, Va.). Antagonistic effects of test ligands were measured as described above except the ligands were incubated with 20 nM biotinylated suPAR in the presence of 20 nM uPA1–48.\nIn order to analyze the effects of the various peptide ligands on the uPAR:vitronectin interaction, we developed an in vitro ELISA based assay for this interaction, in which biotinylated suPAR and uPA1–48 bind to immobilized, urea purified vitronectin, and the bound sUPAR is detected with HRP conjugated streptavidin. Under the conditions of the assay binding of biotinylated uPAR to vitronectin is strictly dependent on uPA1–48, as shown in FIG. 1."}, "sUPAR domain 2–3 (D23)": {"biological_target": "T4, sUPAR domain 2–3 (D23) (Homo sapiens, UniProt Q03405)", "T4 construct": "domains 2 and 3 (amino acids 93–313); made in house; host or cells: baculovirus infected Sf9 insect cells", "T4 sequence (Q03405 115-335)": "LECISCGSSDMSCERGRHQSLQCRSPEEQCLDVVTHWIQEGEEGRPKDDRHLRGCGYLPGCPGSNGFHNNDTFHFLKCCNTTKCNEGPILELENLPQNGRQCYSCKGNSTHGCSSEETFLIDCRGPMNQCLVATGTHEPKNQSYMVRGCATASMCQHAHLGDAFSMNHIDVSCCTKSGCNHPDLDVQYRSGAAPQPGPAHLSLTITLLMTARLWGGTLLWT", "test": "Bacteriophage binding to sUPAR domain 2/3", "conditions": "phage-displayed peptide", "method": "FIG. 5. Bacteriophage binding to sUPAR domain 2/3. Phage were added to wells containing sUPAR domain 2/3 immobilized by its epitope tag via protein G and monoclonal antibody to the epitope tag. Wells containing protein G and antibody but no domain 2/3 were included to determine nonspecific phage binding. Urea-eluted phage and the input stocks were titered by plaque formation assay. Results were single point determinations calculated as a percent of the input titer and were repeated in three separate experiments.\nIt was also shown by the inventors that bacteriophage bound to sUPAR domain 2–3fragment. Protein G, 100μl, 1 mg/ml in 50 mM Na2CO3, pH9.6, was added to MaxiSorp wells, incubated overnight at 4° C. and then washed with PBS/BSA. Fifty μl of monoclonal antibody to the epitope tag EYMPME (SEQ ID NO: 18) was added at 1 mg/ml in PBS/BSA and incubated for 2 hours at room temperature. The wells were washed, recombinant sUPAR domain 2–3 (1.7 μM in PBS/BSA) was added and incubated for 1.5 hours at room temperature. The wells were washed prior to the addition of bacteriophage (approximately 10^8 pfu), and then treated as described in the previous section for binding to suPAR."}, "[3]": {"tested_on": "uPAR mediated adhesion of stimulated U937 cells", "test": "Adhesion of stimulated U937 cells to vitronectin", "type": "cell-based", "from_the_text": "Previous results had shown that vitronectin binding by uPAR correlated with cell adhesion of stimulated U937 cells as described in Wei et al, J. Biol. Chem. 269: 32380–32388 (1994). It was found also that clone 7 peptide could block uPAR mediated adhesion of these cells, whereas the scrambled version of the same peptide had no effect."}, "suPAR [4]": {"biological_target": "T2, suPAR", "test": "SuPAR:1-anilino-8-napthalenesulfonate (ANS) fluorescence", "type": "binding", "conditions": "2 μM sUPAR, 10 μM ANS, 0 to 20 μM competitor", "method": "Determination of the effect of various peptide ligands on sUPAR/ANS fluorescence was performed following a procedure similar to that of Ploug et al, Biochem. 33: 8991–8997 (1994). Fluorescence emission spectra of sUPAR/ANS solutions with or without competitors were obtained using an Hitachi F-4500 fluorescence spectrophotometer with an excitation wavelength of 386 nm, 5-nm band-pass excitation and emission slits, and a 10 mm path length quartz cuvette. The emission spectra from 400 to 600 nm were recorded. For competition measurements, dilutions of a stock sUPAR/ANS solution were made to give individual 0.5 ml aliquots with a final concentration of 2 μM sUPAR, 10 μM ANS, and 0 to 20 μM competitor in PBS containing 10% DMSO. Fluorescence measurements were made after a one hour incubation at 25° C."}, "nontransfected 293 cells": {"tested_on": "nontransfected 293 cells", "test": "Adhesion of nontransfected 293 cells to fibronectin or collagen", "type": "cell-based", "conditions": "recombinant soluble uPAR added, dose dependent", "from_the_text": "To explore whether uPAR binds to integrins, nontransfected 293 cells were allowed to adhere to fibronectin or collagen in the presence of recombinant soluble uPAR (suPAR)."}, "uPA1–48:suPAR complex": {"biological_target": "T5, uPA1–48:suPAR complex (Homo sapiens, UniProt Q03405)", "T5 construct": "sUPAR, soluble truncated form of the urokinase receptor; made in house; host or cells: suPAR: baculovirus-infected Sf9 cells; uPA1-48: recombinant yeast", "T5 sequence (Q03405 23-305, other chains not shown)": "as the sequence (Q03405 23-305 limits assumed) above", "test": "Bacteriophage 7 and 18 binding to uPA1–48:suPAR complex in presence of vitronectin", "conditions": "clone 7 and 18 bacteriophage", "method": "The ability of the various bacteriophage derived peptides to affect binding of uPA1–48:uPAR complexes to vitronectin was assessed in the ELISA assay. Two classes of peptides were effective antagonists in this assay. […] None of the peptides when tested alone increased the binding of biotinylated suPAR to vitronectin. […] In order to test whether the clone 7 and 18 peptides bound directly at the vitronectin binding site on uPAR, and inhibited vitronectin binding by uPAR:uPA1–48 by direct competition for that site, the inventors examined the effects of vitronectin on the binding of these bacteriophage. Vitronectin reduced bacteriophage binding to the uPA1–48:suPAR complex by 5–10 fold, consistent with the hypothesis that these peptides mimic vitronectin as a uPAR ligand."}}, "note": "“Also recorded” adds a separate entry of the source. Read-outs that look alike come from different tables or passages of the source. Ends that are not written are not given here."}
{"substance": "H-AEPMPHSLNFSQYLWYT-NH2 [20^4]", "values": [{"measurement": "IC50", "setting": "uPAR", "value": 0.01, "unit": "µM"}]}
{"substance": "H-AESTYHHLSLGYMYTLN-NH2 [compound 25]", "values": [{"measurement": "IC50", "setting": "uPAR", "value": "> 10", "unit": "µM"}]}
{"substance": "AELDLSTFYDIQYLLRT-NH2 [peptide 18]", "values": [{"measurement": "competition for uPA1–48 binding to sUPAR / receptor binding activity (in words)", "setting": "suPAR [1]", "value": "greatly reduced competition for uPA1–48 binding"}, {"measurement": "effect on binding of uPA1–48:uPAR complexes to vitronectin", "setting": "[2]", "value": "blocks binding of complexes to vitronectin"}, {"measurement": "effect on binding of uPA1–48:uPAR complexes to vitronectin", "setting": "[2]; listed as clone 18", "value": "inhibit complex binding"}, {"measurement": "bacteriophage binding to immobilized D23 versus sUPAR", "setting": "sUPAR domain 2–3 (D23)", "value": "intermediate degree of binding to D23"}, {"measurement": "IC50", "setting": "uPAR", "value": 10, "unit": "µM"}]}
{"substance": "AEPVYQYELDSYLRSYY-NH2 [peptide 7]", "values": [{"measurement": "competition for uPA1–48 binding to sUPAR / receptor binding activity (in words)", "setting": "suPAR [1]", "value": "greatly reduced competition for uPA1–48 binding"}, {"measurement": "effect on binding of uPA1–48:uPAR complexes to vitronectin", "setting": "[2]", "value": "inhibits complex binding to vitronectin"}, {"measurement": "effect on binding of uPA1–48:uPAR complexes to vitronectin", "setting": "[2]; listed as clone 7", "value": "inhibit complex binding"}, {"measurement": "block of uPAR mediated adhesion of stimulated U937 cells to vitronectin", "setting": "[3]; listed as clone 7", "value": "effective blocker"}, {"measurement": "block of uPAR mediated adhesion of stimulated U937 cells to vitronectin", "setting": "[3]; listed as clone 7 peptide", "value": "could block"}, {"measurement": "effect on ANS fluorescence enhancement in the presence of uPAR", "setting": "suPAR [4]", "value": "reduced fluorescence in a dose dependent manner"}, {"measurement": "bacteriophage binding to immobilized D23 versus sUPAR", "setting": "sUPAR domain 2–3 (D23)", "value": "intermediate degree of binding to D23"}, {"measurement": "reduced binding to D23 versus suPAR", "setting": "sUPAR domain 2–3 (D23)", "value": "about 50 fold"}, {"measurement": "IC50", "setting": "uPAR", "value": 10, "unit": "µM"}]}
{"substance": "CLNGGTAVSNKYFSNLHWC [13-32^4]", "values": [{"measurement": "IC50", "setting": "uPAR", "value": 0.25, "unit": "µM"}]}
{"substance": "VEYRDAYSYPQYLSYLE [scrambled version of clone 7, same amino acids as clone 7, but in a different order, reference compound]", "values": [{"measurement": "effect on binding of uPA1–48:uPAR complexes to vitronectin", "setting": "[2]", "value": "did not; also recorded: does not"}, {"measurement": "block of uPAR mediated adhesion of stimulated U937 cells to vitronectin", "setting": "[3]", "value": "no effect"}]}
{"substance": "uPA13–32: amino acids 13–32 of human urokinase with Cys19 converted to Ala (CLNGGTAVSNKYFSNIHWCN) [reference compound]", "values": [{"measurement": "competition for uPA1–48 binding to sUPAR / receptor binding activity (in words)", "setting": "suPAR [1]", "value": "compete directly for uPA1–48 binding"}, {"measurement": "effect on binding of uPA1–48:uPAR complexes to vitronectin", "setting": "[2]", "value": "reduce binding"}, {"measurement": "bacteriophage binding to immobilized D23 versus sUPAR", "setting": "sUPAR domain 2–3 (D23)", "value": "bind signficantly only to intact sUPAR"}]}
{"substance": "suPAR: soluble recombinant human urokinase receptor from baculovirus-infected Sf9 insect cells", "values": [{"measurement": "adhesion of nontransfected 293 cells to fibronectin and collagen", "setting": "nontransfected 293 cells", "value": "inhibited adhesion"}]}
{"substance": "AE PMPHSLNFSQYAWYT [analog of clone 20 peptide, reference compound]", "values": [{"measurement": "competition for uPA1–48 binding to sUPAR / receptor binding activity (in words)", "setting": "suPAR [1]", "value": "greatly reduced receptor binding activity"}, {"measurement": "effect on binding of uPA1–48:uPAR complexes to vitronectin", "setting": "[2]", "value": "did not affect binding to vitronectin"}]}
{"substance": "vitronectin: vitronectin purified from human plasma", "values": [{"measurement": "effect on binding of uPA1–48:uPAR complexes to vitronectin", "setting": "[2]", "value": "blocked"}, {"measurement": "reduction of bacteriophage binding to the uPA1–48:suPAR complex", "setting": "uPA1–48:suPAR complex", "value": "5–10 fold"}]}
